Assay results reported in patent publication US20100190737A1, “COMPOSITIONS COMPRISING INOSINE AND OROTIC ACID AND METHODS OF USE THEREOF FOR THE TREATMENT OF CERTAIN HEART CONDITIONS AND ENHANCEMENT OF WORK CAPACITY” (NUTRITIONAL RESEARCH GROUP LLC, priority 2009, published 2010).

Assays:
[1] = system: rats with experimental aortic stenosis; assay: Short term (7 day) experimental aortic stenosis: heart weight and swimming to exhaustion; format: in vivo, rat; conditions: EAS rats; for Heart Weight: intragastric daily
From the text: There are two 7 day experiments in this portion of the study; a preliminary 7 day study with 54 rats in 9 groups (6 rats per group) to determine optimal dosage levels for the separate inosine or potassium orotate ingredients for farther experimentation by determination of maximal heart weight development and work capacity; and then a study with 30 rats in 5 groups (6 rats per group) using the optimal single ingredient dosage levels for comparison with the results of a composition of the ingredients. All compounds were administered intragastrically through a tube after being dissolved in approximately 1 ml of water.
A single control group received a sham operation, while the rest of the groups received experimental aortic stenosis (“EAS”) operations (all according to Beznak in Journal Physiol. (Lond.) 120.23P, 1953 as modified by Kogan, Bull eksper. Biol. Med., 26:112, 1961 and then the other 13 groups received various treatments and dosages of inosine or potassium orotate or a composition of the two ingredients after the optimal inosine and potassium orotate dosages were determined. All animals were tested at the beginning and end of the experiment for swimming to exhaustion times with a 7.5% body weight load attached to their tails.
Sach compound, i.e., inosine and potassium orotate, was administered at different doses and the level of heart hypertrophy and work capacity was observed. Each of the compounds was evaluated in four doses: 12.5 mg/kg, 25 mg/kg, 50 mg/kg and 100 mg/kg body weight. Six animals were used in each group for inosine [4 groups] and potassium orotate [4 groups] plus the one control group (sham operated, no treatment); 54 animals in total.
Thirty white rats were divided into 5 groups (6 animals in each group). Group I was a sham-operated control group, Group II animals with experimental aortic stenosis but were untreated, Groups III, IV & V animals, all with experimental aortic stenosis received by an intragastric tube each day, either inosine (25 mg/kg body weight), potassium orotate (50 mg/kg body weight) or an composition of inosine (25 mg/kg body weight) plus potassium orotate (50 mg/kg body weight), respectively.

white rats = assay: Long-term (6 months) work capacity in trained and non-trained rats; conditions: for Glycogen in m. quadriceps, After work / Glycogen in m. quadriceps, In rest: end of experiments; for Swimming time After 6 mo.: INO 25 mg/kg, PO 50 mg/kg
Description: Seventy two white rats were randomly placed in 6 groups (12 animals each), to test the effectiveness of training and to determine morphological and physiological alterations in the rats. In Group I, control rats were nontrained and not administered either of inosine or the combination of inosine and orotate; Group II comprised non-trained rats to which were administered inosine (25 mg/kg/body weight; Group III comprised non-trained rats to which were administered the combination of inosine plus potassium orotate (25 mg/kg/body weight of inosine and 50 mg/kg/body weight potassium orotate); Group IV comprised trained rats that were not administered either of inosine or the combination of inosine and orotate; Group V comprised trained rats to which was administered inosine alone (25 mg/kg/body weight), and Group VI comprised trained rats to which was administered the combination of inosine plus potassium orotate (25 mg/kg/body weight of inosine and 50 mg/kg/body weight potassium orotate).
Training of rats consisted of their forced swimming in a water bath (28-30° C.) with a weight fixed on their backs (7.5% of the rat body weight). During the first two weeks the animals swam daily for 5-10 minutes, after which we determined the individual maximum time of swimming to exhaustion (i.e. maximum work capacity) for each animal and then calculated the mean maximum time for each group. After 2 weeks these initial maximum work capacity values were used for planning and performing additional swimming training.
The functional condition of the rats at rest was estimated from their work capacity (maximum swimming time), body weight increase, EKG tests, oxygen consumption and sodium and potassium levels in the myocardium in a relatively quiet state. The morphological state of the heart and other viscera were rated from their absolute and relative weights, and also from histological and histochemical examinations of the myocardium. Also determined were the amounts of glycogen in the m. quadriceps (quadriceps group of muscles) of the hip, the myocardium and the liver. All the quantitative results obtained were processed with conventional statistical procedures.

[2] = seventh day, inosine 25 mg/kg BW, potassium orotate 50 mg/kg BW, alone or together
[3] = seventh day, inosine 25 mg/kg BW, potassium orotate 50 mg/kg BW, alone or together, listed as Inosine

Compound: OC[C@H]1O[C@@H](n2cnc3c(O)ncnc32)[C@H](O)[C@@H]1O [inosine]
- swimming time ([1]; day 7, 12.5 mg/kg intragastrically, EAS control 15±5.0, sham 62±5.0): 18 ± 2.0 min
- swimming time ([1]; day 7, 25 mg/kg): 28 ± 3.0 min
- swimming time ([1]; day 7, 50 mg/kg): 29 ± 3.0 min
- swimming time ([1]; day 7, 100 mg/kg): 27.0 ± 3.0 min
- relative heart weight ([1]; seventh day, 12.5 mg/kg, EAS control 400±8.9, sham 300±5.0): 410±9.0 mg/100 g. body weight
- relative heart weight ([1]; seventh day, 25 mg/kg): 440±12 mg/100 g. body weight
- relative heart weight ([1]; seventh day, 50 mg/kg): 442±12 mg/100 g. body weight
- relative heart weight ([1]; seventh day, 100 mg/kg): 440±10 mg/100 g. body weight
- swimming time [1, 2]: 31 ± 3.0 min
- Heart Weight [1, 2]: 450±12 mg/100 gr BW
- Heart Weight [1, 3]: 450 ± 12 mg/100 gr BW
- swimming time [1, 3]: 31 ± 3.0 min
- animal body weights (white rats; after 6 months): did not materially alter animal body weights
- HEART RATE (white rats; after 6 months training): 300 ± 5.2 beats per minute
- PQ (white rats; after 6 months training): 0.047 ± 0.03
- QRS (white rats; after 6 months training): 0.031 ± 0.004
- QT (white rats; after 6 months training): 0.076 ± 0.001
- Systolic Index (white rats; after 6 months training): 38 ± 6.3
- ΣR (white rats; after 6 months training): 17 ± 0.5 mm
- toxic effects on the functional state of the animals, morphology of the myocardium (white rats; rat, in vivo): did not manifest any toxic effects
- Heart weight after 6 mo. (white rats; trained rats): 359 ± 3.9 mg/100gk BW
- ORGAN WEIGHT Heart (white rats; trained rats): 359.3 ± 4.5 mg PER 100 GRAMs Body Weight
- P/S In all rats group (white rats; trained rats): 1.34 ± 0.12
- P/S In quiet state (white rats; trained rats): 1.16 ± 0.08
- P/S In rat sacrificed after intense physical exercise (white rats; trained rats): 1.55 ± 0.04
- Potassium (myocardium) (white rats; trained rats): 0408 ± 0.015 mcq/gram dry tissue
- Sodium (myocardium) (white rats; trained rats): 0.304 ± 0.018 mcq/gram dry tissue
- Swimming time Before (white rats; trained rats): 65 ± 6.6 min
- Glycogen in m. quadriceps, After work (white rats; trained rats): 558 ± 13.4
- Glycogen in m. quadriceps, In rest (white rats; trained rats): 889 ± 26.0
- Swimming time After 6 mo. (white rats; trained rats, trained control 142 ± 2.4): 180 ± 3.4 min
- Heart weight after 6 mo. (white rats; untrained rats): 302 ± 91 mg/100gk BW
- ORGAN WEIGHT Heart (white rats; untrained rats): 309.4 ± 9.7 mg PER 100 GRAMs Body Weight
- Oxygen consumption End of experiment (white rats; untrained rats): 26.0 ± 0.82 ml/min/kg BW
- P/S In all rats group (white rats; untrained rats): 1.85 ± 0.05
- P/S In quiet state (white rats; untrained rats): 2.01 ± 0.3
- P/S In rat sacrificed after intense physical exercise (white rats; untrained rats): 1.67 ± 0.09
- Potassium (myocardium) (white rats; untrained rats): 0481 ± 0.03 mcq/gram dry tissue
- Sodium (myocardium) (white rats; untrained rats): 0.261 ± 0.018 mcq/gram dry tissue
- Swimming time Before (white rats; untrained rats): 65 ± 5.0 min
- Glycogen in m. quadriceps, After work (white rats; untrained rats): 450 ± 28.3
- Glycogen in m. quadriceps, In rest (white rats; untrained rats): 829 ± 42.0
- Swimming time After 6 mo. (white rats; untrained rats): 70 ± 4.0 min
- HEART RATE (white rats; untrained, after 6 months): 452 ± 8.6 beats per minute
- PQ (white rats; untrained, after 6 months): 0.054 ± 0.003
- QRS (white rats; untrained, after 6 months): 0.026 ± 0.003
- QT (white rats; untrained, after 6 months): 0.06 ± 0.001
- Systolic Index (white rats; untrained, after 6 months): 42.5 ± 9.7
- ΣR (white rats; untrained, after 6 months): 14 ± 0.7 mm
